Laboratory results from US20100069366A1, “ANTIBACTERIAL QUINOLINE DERIVATIVES” (JANSSEN-CILAG, priority 2006, published 2010).
≈ marks a conversion by molar mass, not a printed value.

Assays:
[1] = tested on: M. Smegmatis ATCC607; test: In-vitro anti-bacterial activity against strain M. smegmatis ATCC607; type: cell-based; details: Mycolicibacterium smegmatis, ATCC607; 90% inhibitory concentration for bacterial growth; 48 hours, Alamar Blue fluorescence; read-out: M. smegmatis IC90
Protocol: Flat-bottom, sterile 96-well plastic microtiter plates were filled with 180 μl of sterile deionized water, supplemented with 0.25% BSA. Subsequently, stock solutions (7.8× final test concentration) of compounds were added in 45 μl volumes to a series of duplicate wells in column 2 so as to allow evaluation of their effects on bacterial growth. Serial five-fold dilutions (45 μl in 180 μl) were made directly in the microtiter plates from column 2 to 11 using a customised robot system (Zymark Corp., Hopkinton, Mass.). Pipette tips were changed after every 3 dilutions to minimize pipetting errors with high hydrophobic compounds. Untreated control samples with (column 1) and without (column 12) inoculum were included in each microtiter plate. Approximately 250 CFU per well of bacteria inoculum, in a volume of 100 μl in 2.8× Mueller-Hinton broth medium, was added to the rows A to H, except column 12. The same volume of broth medium without inoculum was added to column 12 in row A to H. The cultures were incubated at 37° C. for 48 hours in a humidified 5% CO2 atmosphere (incubator with open air valve and continuous ventilation). At the end of incubation, two days after inoculation, the bacterial growth was quantitated fluorometrically. Therefore Alamar Blue (10×) was added to all wells in a volume of 20 μl and plates were incubated for another 2 hours at […]
The fluorescence was read in a computer-controlled fluorometer (Cytofluor, Biosearch) at an excitation wavelength of 530 nm and an emission wavelength of 590 nm (gain 30).

[2] = tested on: Staphylococcus aureus (ATCC29213); test: Microtitre plate assay, IC90 determination, STA 29213; type: cell-based; details: Staphylococcus aureus ATCC29213; 90% inhibitory concentration for bacterial growth; resazurin; read-out: IC90 (μg/ml) STA 29213
Protocol: (§1) The bacteria used in this study were grown overnight in flasks containing 100 ml Mueller-Hinton Broth (Becton Dickinson—cat. no. 275730) in sterile de-ionized water, with shaking, at 37° C. Stocks (0.5 ml/tube) were stored at −70° C. until use. Bacteria titrations were performed in microtiter plates to detect the TCID50, in which the TCID50 represents the dilution that gives rise to bacterial growth in 50% of inoculated cultures.
(§2) In general, an inoculum level of approximately 100 TCID50 was used for susceptibility testing.
(§3) Flat-bottom, sterile 96-well plastic microtiter plates were filled with 180 μl of sterile deionized water, supplemented with 0.25% BSA. Subsequently, stock solutions (7.8× final test concentration) of compounds were added in 45 μl volumes in column 2 Serial five-fold dilutions (45 μl in […]) were made directly in the microtiter plates from column 2 to reach column 11. Untreated control samples with (column 1) and without (column 12) inoculum were included in each microtiter plate. Depending on the bacteria type, approximately 10 to 60 CFU per well of bacteria inoculum (100 TCID50), in a volume of 100 μl in 2.8× Mueller-Hinton broth medium, was added to the rows A to H, except column 12. The same volume of broth medium without inoculum was added to column 12 in row A to H. The cultures were incubated at 37° C. for 24 hours under a normal atmosphere (incubator with open air valve and continuous ventilation). At the end of incubation, one day after inoculation, the bacterial growth was quantitated fluorometrically. Therefore resazurin (0.6 mg/ml) was added in a volume of 20 μl to all wells 3 hours after inoculation, and the plates were re-incubated overnight. A change in colour from blue to pink indicated the growth of bacteria. The fluorescence was read in a computer-controlled fluorometer (Cytofluor Biosearch) at an excitation wavelength of 530 nm and an emission wavelength of 590 nm. The % growth inhibition achieved by the compounds was calculated according to standard methods.

[3] = tested on: Streptococcus pneumoniae (ATCC6305); test: Microtitre plate assay, IC90 determination, SPN 6305; type: cell-based; details: Streptococcus pneumoniae ATCC6305; 90% inhibitory concentration for bacterial growth; resazurin; read-out: IC90 (μg/ml) SPN 6305
Protocol: as §1, §2, §3

[4] = tested on: Enterococcus faecalis (ATCC29212); test: Microtitre plate assay, IC90 determination, EFA 29212; type: cell-based; details: Enterococcus faecalis ATCC29212; 90% inhibitory concentration for bacterial growth; resazurin; read-out: IC90 (μg/ml) EFA 29212
Protocol: as §1, §2, §3

[5] = tested on: Streptococcus pyogens (ATCC8668); test: Microtitre plate assay, IC90 determination, SPY 8668; type: cell-based; details: Streptococcus pyogens ATCC8668; 90% inhibitory concentration for bacterial growth; resazurin; read-out: IC90 (μg/ml) SPY 8668
Protocol: as §1, §2, §3

[6] = tested on: Pseudomonas aeruginosa (ATCC27853); test: Microtitre plate assay, IC90 determination, PAE 27853; type: cell-based; details: Pseudomonas aeruginosa ATCC27853; 90% inhibitory concentration for bacterial growth; resazurin; read-out: IC90 (μg/ml) PAE 27853
Protocol: as §1, §2, §3

[7] = tested on: methicilline resistant Staphylococcus aureus (MRSA) (a clinical isolate from the University of Antwerp); test: Microtitre plate assay, IC90 determination, STA RMETH; type: cell-based; details: Staphylococcus aureus, 90% inhibitory concentration for bacterial growth, resazurin, read-out: IC90 (μg/ml) STA RMETH
Protocol: as §1, §2, §3

[8] = tested on: Staphylococcus aureus (ATCC25923); test: Microtitre plate assay, IC90 determination, STA 25923; type: cell-based; details: Staphylococcus aureus ATCC25923; 90% inhibitory concentration for bacterial growth; resazurin; read-out: IC90 (μg/ml) STA 25923
Protocol: as §1, §2, §3

COc1nc2ccc(Br)cc2cc1C(/C(=C/CN(C)C)c1cccc2ccccc12)c1ccccc1 (stereo not drawn) [Compound 10]
IC90 [1]: 0.43 µg/mL (≈ 0.8 µM) | IC90 [2]: 4.79 µg/mL (≈ 8.91 µM) | IC90 [3]: 12 µg/mL (≈ 22.4 µM) | IC90 [4]: 5.38 µg/mL (≈ 10 µM) | IC90 [5]: 9.56 µg/mL (≈ 17.8 µM) | IC90 [6]: 21.4 µg/mL (≈ 39.8 µM) | IC90 [7]: 12 µg/mL (≈ 22.4 µM) | IC90 [8]: 4.27 µg/mL (≈ 7.94 µM)

COc1nc2ccc(Br)cc2cc1C(/C(=C/CN(C)C)CCc1ccccc1)c1ccccc1 (stereo not drawn) [Compound 8]
IC90 [1]: 1.63 µg/mL (≈ 3.16 µM) | IC90 [2]: 8.17 µg/mL (≈ 15.8 µM) | IC90 [3]: 2.05 µg/mL (≈ 3.98 µM) | melting point: 128 °C
